Test results reported in patent US6905852B1, “Herbicide-resistant protoporphyrinogen oxidase isolated from Nicotiana tabacum” (Nihon Nohyaku Co., Ltd., priority 1997, dated 2005).

Experiments:
Format in all cases: cell-based, Nicotiana tabacum
[1] = system: tobacco callus; assay: Sensitivity of tobacco callus to compound H (survival)
Experimental: Tobacco (Nicotiana tabacum CV. Xanthi NC) was grown to 40 cm tall in a green house. And a leaf was cut, and the leaf was cut to square-shape of 5 cm width by a knife, then immersed in 70% ethanol for 30 seconds and in an aqueous solution of sodium hypochlorite (the effective concentration of chlorine was 1%) for 15 minutes to conduct surface-sterilization. After washing it for three times by sterilized water and removal of epidermis, the leaf fragment was suspended in 0.6M manitol (pH 5.8) containing an enzyme solution (1% cellulase onozuka R-10 and 0.05% macerozyme R-10 (manufactured by Yakult Co., Ltd.)) at 26° C. for three hours. After the enzyme treatment, protoplasts were washed with centrifugation by Murasige-Skoog (MS) medium for three times, and the obtained protoplast was suspended into MS solid medium containing 0.6% agar and 1 ppm of NAA and BA, to make a cell number of 10^8/ml, and pored into a dish at 1 cm thick. The protoplast was cultured at 27° C. under darkness to regenerate a callus. Four weeks after the incubation, the agar medium containing a callus grown up to about 1 mm large, was cut to rectangular shape having 1 cm width, and put on MS solid medium containing various concentration of the compound H (4-chloro-3-[2,4-dichloro-5(2-propenyloxy)phenyl]-5-difluoromethoxy-1-methyl-1H-pyrazole, described in Toku Kai Hei 3-163063), and the sensitivity of tobacco callus to photobleaching herbicide was examined. As shoen in Table 1, it become apparent that the callus completely dies at 10 nM.

[2] = system: tobacco callus; assay: Selection course of callus lines tolerant to the photobleaching herbicide
Experimental: Using a medium containing the compound H containing two times concentration (20 nM) of the concentration at which tobacco callus completely dies, the selection of tobacco callus tolerant to photobleaching herbicide has been started. 1×10^5 of tobacco callus have been selected (Table 2), in the course of re-generation from 1×10^10 of the protoplast.
number of protoplast given: 1×10^10

[3] = system: sensitive cell line; assay: Accumulation of protoporphyrin IX in callus; details: 1,200 nM compound H
[4] = system: ETR-056 line; assay: Accumulation of protoporphyrin IX in callus; details: 1,200 nM compound H
Experimental: (§1) The present inventors have tried to analyze the resistant mechanism in the resistant strain tolerant to photobleaching herbicide. It has been reported that in a plant treated by photobleaching herbicide, protoporphyrin IX is accumulated, the present inventors tried to measure the accumulation of protoporphyrin IX periodically. A resistant callus which has been subcultured in MS liquid medium containing 1,200 nM of compound H under light condition was cultured for 24 hours in a dark condition, then transplanted into MS liquid medium containing 1,200 nM of compound H, and after 6, 12, 18, 24, 32 and 48 hours later, the callus was collected, and protoporphyrin IX was measured. The extraction and assay of the protoporphyrin 1× from the callus were conducted as follows (Matringe, M. et al. (1989) Biochem, J. 260:231-235.). That is, 500 mg (wet weight) of the callus was homogenized in a mortar, and extracted with 7.5 ml of acetone: 1N NH4OH (9:1). The extract was centrifuged at 3,000×g for 10 minutes, then the supernatant was collected. To the supernatant 2.5 ml of hexane was added and mixed sufficiently, then, the lower layer was recovered. Further, after washing with hexane two twice, the amount of protoporphyrin IX obtained in the lower layer was measured from the value of Ex 405 nm-Em 631.5 nm by a fluorescence spectrophotometer. All the extraction procedures were conducted under the safety light.

[5] = system: ETR-245; assay: Accumulation of protoporphyrin IX in callus; details: 1,200 nM compound H
Experimental: as §1

[6] = system: ETR-253; assay: Accumulation of protoporphyrin IX in callus; details: 1,200 nM compound H
Experimental: as §1

## C=CCOc1cc(-c2nn(C)c(OC(F)F)c2Cl)c(Cl)cc1Cl [compound H, 4-chloro-3-[2,4-dichloro-5(2-propenyloxy)phenyl]-5-difluoromethoxy-1-methyl-1H-pyrazole]
[1]; 2.5 nM
  Survival Rate (%): 30%
[1]; 5 nM
  Survival Rate (%): 10%
[1]; 8 nM (last line of the table)
  Survival Rate (%): 0%
[1]; 10 nM
  Survival Rate (%): 0%
[1]; 20 nM
  Survival Rate (%): 0%
[1]; 40 nM
  Survival Rate (%): 0%
[1]; tobacco callus on MS solid medium
  concentration at which the callus completely dies: 10 nM
[2]; 20 nM, protoplast given 1×10^10
  Number of resistant cell lines: 100,000
[2]; 30 nM
  Number of resistant cell lines: 50,000
[2]; 50 nM
  Number of resistant cell lines: 40,000
[2]; 75 nM
  Number of resistant cell lines: 7,200
[2]; 150 nM
  Number of resistant cell lines: 254
[2]; 300 nM
  Number of resistant cell lines: 120
[2]; 600 nM
  Number of resistant cell lines: 66
[2]; 1200 nM
  Number of resistant cell lines: 46
[2]; 2,400 nM
  Number of resistant cell lines: 36
[2]; 5,000 nM
  Number of resistant cell lines: 0
[3]; 24 hours
  amount of protoporphyrin IX: 1.3 μg/g fresh weight
[3]; 48 hours
  amount of protoporphyrin IX: 1.9 μg/g fresh weight
[4]; 24 hours
  amount of protoporphyrin IX: 1.7 μg/g fresh weight
[4]; 48 hours
  amount of protoporphyrin IX: 4.6 μg/g fresh weight
[5]
  accumulation of protoporphyrin IX: little accumulation
[6]
  accumulation of protoporphyrin IX: little accumulation
